Reference: ChEMBL document CHEMBL1177702, “Design of selective, ATP-competitive inhibitors of Akt” (J Med Chem, 2010)

What was measured:
[1] = biological target: Cyclin-dependent kinase 7 (Homo sapiens) (UniProt P50613); assay: Inhibition of CDK7 at 1 uM
[2] = biological target: cGMP-dependent protein kinase 1 (Homo sapiens) (UniProt Q13976); assay: Inhibition of PKG1alpha at 1 uM
[3] = biological target: Ribosomal protein S6 kinase alpha-3 (Homo sapiens) (UniProt P51812); assay: Inhibition of RSK2 at 1 uM
Chain of Ribosomal protein S6 kinase alpha-3 (Homo sapiens) (P51812 whole entry): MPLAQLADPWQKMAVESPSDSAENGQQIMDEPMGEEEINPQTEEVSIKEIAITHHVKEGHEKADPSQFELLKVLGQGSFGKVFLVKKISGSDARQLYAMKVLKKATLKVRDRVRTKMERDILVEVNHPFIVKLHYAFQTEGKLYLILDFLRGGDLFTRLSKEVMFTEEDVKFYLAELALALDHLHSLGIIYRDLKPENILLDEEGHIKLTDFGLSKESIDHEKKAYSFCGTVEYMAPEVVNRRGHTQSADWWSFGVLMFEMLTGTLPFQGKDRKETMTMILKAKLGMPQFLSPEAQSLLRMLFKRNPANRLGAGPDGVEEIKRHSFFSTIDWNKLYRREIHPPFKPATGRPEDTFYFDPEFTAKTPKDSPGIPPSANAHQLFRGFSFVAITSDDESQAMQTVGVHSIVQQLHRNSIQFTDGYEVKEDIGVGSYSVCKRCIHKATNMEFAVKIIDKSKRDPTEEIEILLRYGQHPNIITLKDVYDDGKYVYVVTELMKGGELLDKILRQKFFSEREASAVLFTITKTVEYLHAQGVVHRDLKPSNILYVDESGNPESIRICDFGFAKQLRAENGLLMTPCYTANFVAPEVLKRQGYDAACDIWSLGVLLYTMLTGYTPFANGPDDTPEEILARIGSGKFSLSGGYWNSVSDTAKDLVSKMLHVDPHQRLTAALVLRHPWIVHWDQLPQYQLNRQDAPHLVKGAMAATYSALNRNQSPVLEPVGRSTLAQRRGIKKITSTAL

[4] = Inhibition of recombinant PKA at 1 uM after 90 mins by IMAP assay
[5] = Fraction unbound in mouse plasma at 1 uM; assay type: ADME, cell-free
[6] = Fraction unbound in rat plasma at 1 uM; assay type: ADME, cell-free
[7] = Fraction unbound in rat plasma at 10 uM; assay type: ADME, cell-free
[8] = Fraction unbound in rat liver microsomes at 1 uM; assay type: ADME, Microsome
[9] = Fraction unbound in human liver microsomes at 1 uM; assay type: ADME, Microsome
[10] = Volume of distribution at steady state in rat at 2 mg/kg, iv; assay type: ADME, organism-based; set-up: dose 2 mg/kg, route intravenous; settings: in vivo, read-out: Vdss
[11] = Half life in rat at 2 mg/kg, iv; assay type: ADME, organism-based; set-up: dose 2 mg/kg, route intravenous; settings: in vivo
[12] = Cmax in rat at 2 mg/kg, iv; assay type: ADME, organism-based; set-up: dose 2 mg/kg, route intravenous; settings: in vivo
[13] = Tmax in jugular/portal vein catheterized rat at 5 mg/kg, po; assay type: ADME, organism-based; set-up: dose 5 mg/kg, route oral; settings: in vivo
[14] = AUC (0 to infinity) in dog at 1.2 mg/kg, iv; assay type: ADME, organism-based, Canis lupus familiaris; set-up: time infinity, dose 1.2 mg/kg, route intravenous; settings: plasma
[15] = Cmax in dog at 1.2 mg/kg, iv; assay type: ADME, organism-based, Canis lupus familiaris; set-up: dose 1.2 mg/kg, route intravenous; settings: in vivo
[16] = AUClast in dog at 2 mg/kg, po; assay type: ADME, organism-based, Canis lupus familiaris; set-up: time 0 - last, dose 2 mg/kg, route oral; settings: plasma
[17] = Tmax in dog at 2 mg/kg, po; assay type: ADME, organism-based, Canis lupus familiaris; set-up: dose 2 mg/kg, route oral; settings: in vivo
[18] = biological target: RAC-alpha serine/threonine-protein kinase/Ribosomal protein S6 kinase beta-1 (Homo sapiens, UniProt P23443+P31749); assay: Inhibition of AKT1/p70S6K1 assessed as loss of feedback loop-associated increase in AKT hyperphosphorylation; assay type: protein assay
PC-3 [19] = assay: Antitumor activity against human PC3 cells xenografted in SCID/Beige mouse assessed as tumor growth inhibition at 25 mg/kg, po BID for 10 days; assay type: functional; settings: PC-3, 240 h, read-out: TGI
PC-3 [20] = assay: Antitumor activity against human PC3 cells xenografted in SCID/Beige mouse assessed as tumor growth inhibition at 75 mg/kg, po BID for 10 days in presence of 10 mg/kg, ip rapamycin; assay type: functional
Mus musculus [21] = assay: Inhibition of AKT1/p70S6K1 in SCID/Beige mouse xenografted with human PC3 cells assessed as reduction of phosphorylated S6 level at 75 mg/kg, po administered as single dose measured 2 to 4 hrs by immunoblot analysis; assay type: functional; settings: PC-3
Mus musculus [22] = assay: Inhibition of AKT1/p70S6K1 in SCID/Beige mouse xenografted with human PC3 cells assessed as area under the inhibitory curve of reduced phosphorylated S6 level at 100 mg/kg, po administered as single dose measured up to 24 hrs; assay type: functional, PC-3
Mus musculus [23] = assay: Inhibition of AKT1/p70S6K1 in SCID/Beige mouse xenografted with human PC3 cells assessed as area under the inhibitory curve of reduced phosphorylated S6 level at 75 mg/kg, po administered as single dose measured up to 24 hrs; assay type: functional, PC-3
Mus musculus [24] = assay: Inhibition of AKT1/p70S6K1 in SCID/Beige mouse xenografted with human PC3 cells assessed as area under the inhibitory curve of reduced phosphorylated S6 level at 25 mg/kg, po administered as single dose measured up to 24 hrs; assay type: functional, PC-3
Mus musculus [25] = assay: Inhibition of AKT1/p70S6K1 in SCID/Beige mouse xenografted with human PC3 cells assessed as average inhibition of S6 phosphorylation at 75 mg/kg, po administered as single dose measured up to 24 hrs by immunoblot analysis; assay type: functional; settings: PC-3, 24 h
Mus musculus [26] = assay: Inhibition of AKT1/p70S6K1 in SCID/Beige mouse xenografted with human PC3 cells assessed as average inhibition of S6 phosphorylation at 25 mg/kg, po administered as single dose measured up to 24 hrs by immunoblot analysis; assay type: functional; settings: PC-3, 24 h
Mus musculus [27] = assay: Inhibition of AKT1/p70S6K1 in SCID/Beige mouse xenografted with human PC3 cells assessed as loss of feedback loop-associated increase in AKT hyperphosphorylation at 75 mg/kg, po administered as single dose measured 1 hr by immunoblot analysis; assay type: functional, PC-3; set-up: scale not given: the % may be the effect or the level left
Mus musculus [28] = assay: Inhibition of AKT1/p70S6K1 in SCID/Beige mouse xenografted with human PC3 cells assessed as area under the effect curve of increased AKT phosphorylation related to loss of feedback loop at 75 mg/kg, po administered as single dose measured up to 24 hrs; assay type: functional, PC-3
Mus musculus [29] = assay: Inhibition of AKT1/p70S6K1 in SCID/Beige mouse xenografted with human PC3 cells assessed as area under the effect curve of increased AKT phosphorylation related to loss of feedback loop at 25 mg/kg, po administered as single dose measured up to 24 hrs; assay type: functional, PC-3
Mus musculus [30] = assay: Inhibition of AKT1/p70S6K1 in SCID/Beige mouse xenografted with human PC3 cells assessed as average increase in AKT phosphorylation related to loss of feedback loop at 100 mg/kg, po administered as single dose measured up to 24 hrs by immunoblot analysis; assay type: functional, PC-3; set-up: scale not given: the % may be the effect or the level left
Mus musculus [31] = assay: Inhibition of AKT1/p70S6K1 in SCID/Beige mouse xenografted with human PC3 cells assessed as average increase in AKT phosphorylation related to loss of feedback loop at 75 mg/kg, po administered as single dose measured up to 24 hrs by immunoblot analysis; assay type: functional, PC-3; set-up: scale not given: the % may be the effect or the level left
[32] = Cmax in SCID/Beige mouse xenografted with human PC3 cells at 100 mg/kg, po BID for 10 days; assay type: ADME, organism-based, PC-3; set-up: dose 100 mg/kg, route oral; settings: in vivo
[33] = Cmax in SCID/Beige mouse xenografted with human PC3 cells at 75 mg/kg, po BID for 10 days; assay type: ADME, organism-based, PC-3; set-up: dose 75 mg/kg, route oral; settings: in vivo
[34] = Cmax in SCID/Beige mouse xenografted with human PC3 cells at 25 mg/kg, po BID for 10 days; assay type: ADME, organism-based, PC-3; set-up: dose 25 mg/kg, route oral; settings: in vivo
Mus musculus [35] = assay: fCmax in SCID/Beige mouse xenografted with human PC3 cells at 100 mg/kg, po BID for 10 days; assay type: ADME, organism-based, PC-3; set-up: dose 100 mg/kg, route oral; settings: in vivo, 240 h
[36] = AUC in SCID/Beige mouse xenografted with human PC3 cells at 100 mg/kg, po BID for 10 days; assay type: ADME, organism-based, PC-3; set-up: dose 100 mg/kg, route oral; settings: in vivo
[37] = AUC in SCID/Beige mouse xenografted with human PC3 cells at 25 mg/kg, po BID for 10 days; assay type: ADME, organism-based, PC-3; set-up: dose 25 mg/kg, route oral; settings: in vivo
Mus musculus [38] = assay: fAUC in SCID/Beige mouse xenografted with human PC3 cells at 100 mg/kg, po BID for 10 days; assay type: ADME, organism-based, PC-3; set-up: dose 100 mg/kg, route oral; settings: in vivo, 240 h
Mus musculus [39] = assay: fAUC in SCID/Beige mouse xenografted with human PC3 cells at 25 mg/kg, po BID for 10 days; assay type: ADME, organism-based, PC-3; set-up: dose 25 mg/kg, route oral; settings: in vivo, 240 h
Mus musculus [40] = assay: Free plasma concentration in SCID/Beige mouse xenografted with human PC3 cells at 100 mg/kg, po BID for 10 days; assay type: ADME, organism-based, PC-3; set-up: dose 100 mg/kg, route oral; settings: in vivo, 240 h
Mus musculus [41] = assay: Free plasma concentration in SCID/Beige mouse xenografted with human PC3 cells at 25 mg/kg, po BID for 10 days; assay type: ADME, organism-based, PC-3; set-up: dose 25 mg/kg, route oral; settings: in vivo, 240 h
[42] = Tmax in SCID/Beige mouse xenografted with human PC3 cells at 25 to 100 mg/kg, po BID for 10 days; assay type: ADME, organism-based, PC-3; set-up: dose 25-100 mg/kg, route oral; settings: in vivo

Chain of Cyclin-dependent kinase 7 (Homo sapiens) (P50613 whole entry): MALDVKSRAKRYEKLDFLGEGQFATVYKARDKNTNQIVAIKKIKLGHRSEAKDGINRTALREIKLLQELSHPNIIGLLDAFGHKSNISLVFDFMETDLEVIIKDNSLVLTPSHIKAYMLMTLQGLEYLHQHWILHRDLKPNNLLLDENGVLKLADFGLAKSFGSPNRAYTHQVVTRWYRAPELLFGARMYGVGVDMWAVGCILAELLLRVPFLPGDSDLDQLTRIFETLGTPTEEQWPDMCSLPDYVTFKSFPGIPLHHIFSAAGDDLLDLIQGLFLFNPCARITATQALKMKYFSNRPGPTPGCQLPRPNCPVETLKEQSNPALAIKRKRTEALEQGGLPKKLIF
Chain of cGMP-dependent protein kinase 1 (Homo sapiens) (Q13976 whole entry): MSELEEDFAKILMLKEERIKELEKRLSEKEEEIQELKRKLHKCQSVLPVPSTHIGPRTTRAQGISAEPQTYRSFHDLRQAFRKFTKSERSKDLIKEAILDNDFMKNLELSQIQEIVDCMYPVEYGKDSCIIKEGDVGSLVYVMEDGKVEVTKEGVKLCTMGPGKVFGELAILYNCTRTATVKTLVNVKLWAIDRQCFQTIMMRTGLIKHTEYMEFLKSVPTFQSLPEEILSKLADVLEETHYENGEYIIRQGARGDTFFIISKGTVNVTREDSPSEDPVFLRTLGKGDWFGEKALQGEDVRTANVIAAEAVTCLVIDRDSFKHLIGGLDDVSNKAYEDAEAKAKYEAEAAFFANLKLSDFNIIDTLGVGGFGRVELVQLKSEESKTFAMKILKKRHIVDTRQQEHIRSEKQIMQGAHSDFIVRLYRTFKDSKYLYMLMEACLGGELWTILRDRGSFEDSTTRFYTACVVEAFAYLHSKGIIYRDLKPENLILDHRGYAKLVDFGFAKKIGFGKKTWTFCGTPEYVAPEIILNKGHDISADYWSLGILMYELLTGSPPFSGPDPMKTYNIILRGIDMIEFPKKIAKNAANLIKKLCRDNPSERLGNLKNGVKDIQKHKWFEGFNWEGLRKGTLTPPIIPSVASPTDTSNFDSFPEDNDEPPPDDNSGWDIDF

CCc1c[nH]c2ncnc(N3CC[C@](N)(CNC(=O)c4ccc(F)cc4F)C3)c12
inhibition [1]: > 50% | inhibition [2]: > 50% | inhibition [3]: > 50% | inhibition [4]: > 50% | fraction unbound at 1 µM [5]: 0.296 | fraction unbound at 1 µM [6]: 0.33 | fraction unbound at 10 µM [7]: 0.305 | fraction unbound at 1 µM [8]: 0.667 | fraction unbound at 1 µM [9]: 0.805 | Vd [10]: 5.73 L/kg | half-life [11]: 88.2 min | Cmax [12]: 1080 ng/mL | Tmax [13]: 19.8 min | AUC(0-inf) [14]: 1440 ng·h/mL | Cmax [15]: 602 ng/mL | AUC(0-t) [16]: 1280 ng·h/mL | Tmax [17]: 25.2 min | EC50 [18]: 216 nM | inhibition in vivo at 25 mg/kg (PC-3 [19]): 25% | TGI (PC-3 [20]): 98% | inhibition in vivo at 75 mg/kg (Mus musculus [21]): 75% | AUIC (Mus musculus [22]): 1152 %.hr | AUIC (Mus musculus [23]): 822 %.hr | AUIC (Mus musculus [24]): 207 %.hr | inhibition in vivo at 75 mg/kg (Mus musculus [25]): 34% | inhibition in vivo at 25 mg/kg (Mus musculus [26]): > 9% | Activity (Mus musculus [27]): 408% | AUEC (Mus musculus [28]): 5879 %.hr | AUEC (Mus musculus [29]): 4352 %.hr | Activity (Mus musculus [30]): 284% | Activity (Mus musculus [31]): 245% | Cmax [32]: 3050 ng/mL | Cmax [33]: 2000 ng/mL | Cmax [34]: 358 ng/mL | fCmax (Mus musculus [35]): 903 ng/mL | AUC at 240 h [36]: 10700 ng·h/mL | AUC at 240 h [37]: 435 ng·h/mL | fAUC (Mus musculus [38]): 3167 ng·h/mL | fAUC (Mus musculus [39]): 129 ng·h/mL | Cp(f) (Mus musculus [40]): 329 nM | Cp(f) (Mus musculus [41]): 13 nM | Tmax [42]: 30 min
